In one experiment the target is T1, human NPR1 (Homo sapiens, UniProt P16066).
T1 construct: host or cells: CHO-K1
T1 sequence (P16066 33-1061): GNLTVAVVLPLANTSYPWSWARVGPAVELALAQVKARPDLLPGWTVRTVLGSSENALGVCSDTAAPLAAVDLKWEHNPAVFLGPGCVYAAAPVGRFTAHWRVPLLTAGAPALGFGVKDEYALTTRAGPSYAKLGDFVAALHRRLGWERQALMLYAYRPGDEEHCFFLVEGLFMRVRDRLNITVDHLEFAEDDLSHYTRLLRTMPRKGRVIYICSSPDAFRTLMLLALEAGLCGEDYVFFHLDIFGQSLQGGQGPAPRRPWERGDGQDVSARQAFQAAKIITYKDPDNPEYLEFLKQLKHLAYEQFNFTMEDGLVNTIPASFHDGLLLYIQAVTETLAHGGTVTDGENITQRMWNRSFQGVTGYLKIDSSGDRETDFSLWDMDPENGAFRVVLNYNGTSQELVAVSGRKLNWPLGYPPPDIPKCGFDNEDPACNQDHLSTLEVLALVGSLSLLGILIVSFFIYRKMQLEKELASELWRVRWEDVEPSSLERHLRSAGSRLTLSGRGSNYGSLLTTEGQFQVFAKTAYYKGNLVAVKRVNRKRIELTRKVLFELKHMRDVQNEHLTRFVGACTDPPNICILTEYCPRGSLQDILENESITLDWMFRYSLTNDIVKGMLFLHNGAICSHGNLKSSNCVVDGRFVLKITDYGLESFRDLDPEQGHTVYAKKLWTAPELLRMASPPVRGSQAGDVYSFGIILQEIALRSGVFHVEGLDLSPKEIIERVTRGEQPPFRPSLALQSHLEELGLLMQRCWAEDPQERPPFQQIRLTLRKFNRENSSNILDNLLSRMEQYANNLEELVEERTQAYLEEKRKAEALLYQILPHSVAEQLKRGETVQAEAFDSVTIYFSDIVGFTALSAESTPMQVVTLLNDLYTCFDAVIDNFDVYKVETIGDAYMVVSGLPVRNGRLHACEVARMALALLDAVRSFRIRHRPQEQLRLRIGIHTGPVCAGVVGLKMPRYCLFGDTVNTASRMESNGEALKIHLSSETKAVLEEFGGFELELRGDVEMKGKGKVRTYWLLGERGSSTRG
Put plainly: Cellular cGMP production assay, human NPR1 expressing CHO-K1 cells (CisBio HTRF). The class given is cell-based. The note with it: for AC50: cGMP production, 30 min at 37° C., 12-point dose-response from 30 μM; for Human NPR1 Amax (% of ANP): maximum cGMP production as percentage of the maximum cGMP produced with ANP. In outline: (§1)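 Step 1: add buffer (PBS, 0.1% BSA, 1 mM IBMX) and compounds, 3-fold series from 30 μM top. Step 2: incubate 30 min, 37 °C. Step 3: lyse; HTRF reagents 1 h at RT.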
(In general: Time-resolved FRET reads energy transfer from a long-lived donor to a nearby acceptor.)

A further experiment has as its target monkey NPR1 (Macaca fascicularis, UniProt A0A7N9DBT9). Put plainly: Cellular cGMP production assay, monkey NPR1 expressing CHO-K1 cells (CisBio HTRF). The class given is cell-based. The note with it: for Monkey NPR1 Amax (% of ANP): maximum cGMP production as percentage of the maximum cGMP produced with ANP. In outline: as §1
Where [1] appears, read: cGMP production, monkey NPR1 CHO-K1 cells, 30 min at 37° C., 12-point dose-response from 30 μM, read-out: Monkey NPR1 AC50.

Each structure is given as a SMILES string. Like-named read-outs stand apart in the source and are kept apart here.

Chain of monkey NPR1 (A0A7N9DBT9 entry or part of it): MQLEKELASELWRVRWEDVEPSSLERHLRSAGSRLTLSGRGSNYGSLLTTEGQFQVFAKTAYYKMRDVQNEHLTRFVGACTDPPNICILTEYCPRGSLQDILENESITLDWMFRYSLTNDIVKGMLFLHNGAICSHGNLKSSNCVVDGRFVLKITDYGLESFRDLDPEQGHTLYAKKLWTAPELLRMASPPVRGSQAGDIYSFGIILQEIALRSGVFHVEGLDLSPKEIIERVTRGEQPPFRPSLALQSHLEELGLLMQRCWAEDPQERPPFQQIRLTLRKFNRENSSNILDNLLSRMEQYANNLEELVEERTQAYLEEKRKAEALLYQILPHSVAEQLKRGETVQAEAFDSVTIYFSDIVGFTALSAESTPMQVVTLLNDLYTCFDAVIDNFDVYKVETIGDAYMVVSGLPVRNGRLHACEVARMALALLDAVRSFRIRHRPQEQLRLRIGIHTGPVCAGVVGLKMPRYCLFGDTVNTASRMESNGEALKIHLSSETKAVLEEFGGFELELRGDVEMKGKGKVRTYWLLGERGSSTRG

For orientation: AC50 means the concentration at which the activity in the assay is half-maximal. On to `CC[C@H]([C@H]1CC[C@H](C(=O)O)CC1)N(C)c1nc2c(c(N[C@@H](CN3CCCCC3)c3cnn(C)c3)n1)C[C@H](c1ccccc1)CC2` [Compound 118, (1R,4r)-4-((R)-1-(methyl((R)-4-(((R)-1-(1-methyl-1H-pyrazol-4-yl)-2-(piperidin-1-yl)ethyl)amino)-6-phenyl-5,6,7,8-tetrahydroquinazolin-2-yl)amino)propyl)cyclohexane-1-carboxylic acid], for which, on human NPR1, the activity was half-maximal at 540 nM (AC50) and the “Human NPR1 Amax (% of ANP)” value is 94.446 % of ANP. Further, on monkey NPR1 (setting [1]), the AC50 was determined as 400 nM. Further, the “Monkey NPR1 Amax (% of ANP)” value on monkey NPR1 (monkey NPR1 CHO-K1 cells) is listed as 99.466 % of ANP.

On to `CC[C@@H](N(C)c1nc2c(c(N[C@@H](CN3CCC[C@H](C)C3)c3cnn(C)c3)n1)C[C@](C)(c1ccccc1)CC2)C12CC(C(=O)O)(C1)C2` [Compound 8, 3-((R)-1-(methyl((R)-6-methyl-4-(((R)-1-(1-methyl-1H-pyrazol-4-yl)-2-((S)-3-methylpiperidin-1-yl)ethyl)amino)-6-phenyl-5,6,7,8-tetrahydroquinazolin-2-yl)amino)propyl)bicyclo[1.1.1]pentane-1-carboxylic acid], for which, on human NPR1, the activity was half-maximal at 87 nM (AC50) and the “Human NPR1 Amax (% of ANP)” value is 92.409 % of ANP. For the same compound, the AC50 at monkey NPR1 (setting [1]) turned out to be 77 nM. Also, the “Monkey NPR1 Amax (% of ANP)” value at monkey NPR1 (monkey NPR1 CHO-K1 cells) is reported as 101.778 % of ANP.

As to `CC[C@@H](N(C)c1nc2c(c(N[C@@H](CN3C4CCCC3CC4)c3scnc3C)n1)C[C@H](c1cccc(F)c1)CC2)C12CC(C(=O)O)(C1)C2` [Compound 113, 3-((1R)-1-(((6R)-4-(((1S)-2-(8-azabicyclo[3.2.1]octan-8-yl)-1-(4-methylthiazol-5-yl)ethyl)amino)-6-(3-fluorophenyl)-5,6,7,8-tetrahydroquinazolin-2-yl)(methyl)amino)propyl)bicyclo[1.1.1]pentane-1-carboxylic acid], at human NPR1, half-maximal activity (AC50) was put at 438 nM and the “Human NPR1 Amax (% of ANP)” value is 98.462 % of ANP. The compound further returned an AC50 on monkey NPR1 of 460 nM. The “Monkey NPR1 Amax (% of ANP)” value at monkey NPR1 (monkey NPR1 CHO-K1 cells) is given as 99.894 % of ANP.

`CC[C@H]([C@H]1CC[C@H](C(=O)O)CC1)N(C)c1nc2c(c(N[C@@H](CN3C4CCCC3CC4)c3cnn(C)c3)n1)C[C@H](c1cccc(F)c1)CC2` [Compound 33, (1R,4r)-4-((1R)-1-(((6R)-4-(((1R)-2-(8-azabicyclo[3.2.1]octan-8-yl)-1-(1-methyl-1H-pyrazol-4-yl)ethyl)amino)-6-(3-fluorophenyl)-5,6,7,8-tetrahydroquinazolin-2-yl)(methyl)amino)propyl)cyclohexane-1-carboxylic acid]: the values for the AC50 at human NPR1 and at monkey NPR1 were 145 nM and 104 nM, respectively. In addition, at human NPR1, the “Human NPR1 Amax (% of ANP)” value is recorded as 99.163 % of ANP. Further, on monkey NPR1 (monkey NPR1 CHO-K1 cells), the “Monkey NPR1 Amax (% of ANP)” value was 106.934 % of ANP.

`CC[C@@H](Nc1nc2c(c(N[C@@H](CN3C4CCCC3CC4)c3cnn(C)c3)n1)C[C@H](c1ccccc1)CC2)[C@H]1CC[C@H](C(=O)O)CC1` [Compound 60, (1R,4r)-4-((1R)-1-(((6R)-4-(((1R)-2-(8-azabicyclo[3.2.1]octan-8-yl)-1-(1-methyl-1H-pyrazol-4-yl)ethyl)amino)-6-phenyl-5,6,7,8-tetrahydroquinazolin-2-yl)amino)propyl)cyclohexane-1-carboxylic acid]: on human NPR1, the AC50 came out at 205 nM and the “Human NPR1 Amax (% of ANP)” value is listed as 93.233 % of ANP. This compound had an AC50 at monkey NPR1 of 99 nM. On monkey NPR1 (monkey NPR1 CHO-K1 cells), the “Monkey NPR1 Amax (% of ANP)” value is given as 106.189 % of ANP.

For the compound `CC[C@@H](Nc1nc2c(c(N[C@@H](CN3CCC[C@H](C)C3)c3cnn(C(C)C)c3)n1)C[C@H](c1ccccc1)CC2)[C@H]1CC[C@H](C(=O)O)CC1` [Compound 22, (1R,4r)-4-((R)-1-(((R)-4-(((R)-1-(1-isopropyl-1H-pyrazol-4-yl)-2-((S)-3-methylpiperidin-1-yl)ethyl)amino)-6-phenyl-5,6,7,8-tetrahydroquinazolin-2-yl)amino)propyl)cyclohexane-1-carboxylic acid], at human NPR1, the AC50 stood at 114 nM and the “Human NPR1 Amax (% of ANP)” value is reported as 102.676 % of ANP. In addition, at monkey NPR1 (setting [1]), the AC50 amounted to 74 nM. Besides, on monkey NPR1 (monkey NPR1 CHO-K1 cells), the “Monkey NPR1 Amax (% of ANP)” value is recorded as 103.742 % of ANP.

As to `CC[C@H]([C@H]1CC[C@H](C(=O)O)CC1)N(C)c1nc2c(c(N[C@@H](CN3CCCC[C@@H]3CO)c3cnn(CC)c3)n1)C[C@H](c1cccc(F)c1)CC2` [Compound 104, (1R,4r)-4-((R)-1-(((R)-4-(((R)-1-(1-ethyl-1H-pyrazol-4-yl)-2-((R)-2-(hydroxymethyl)piperidin-1-yl)ethyl)amino)-6-(3-fluorophenyl)-5,6,7,8-tetrahydroquinazolin-2-yl)(methyl)amino)propyl)cyclohexane-1-carboxylic acid], on human NPR1, the AC50 was 396 nM and the “Human NPR1 Amax (% of ANP)” value was 106.357 % of ANP. Moreover, the half-maximal activity concentration (AC50) on monkey NPR1 (setting [1]) was 290 nM. For the same compound, at monkey NPR1 (monkey NPR1 CHO-K1 cells), the “Monkey NPR1 Amax (% of ANP)” value was 109.908 % of ANP.

On to `CC[C@H]([C@H]1CC[C@](F)(C(=O)O)CC1)N(C)c1nc2c(c(N[C@H](CN3CCC[C@H](C)C3)c3cnn(C)c3)n1)C[C@H](c1ccccc1)CC2` [Compound 82, (1S,4s)-1-fluoro-4-((R)-1-(methyl((R)-4-(((S)-1-(1-methyl-1H-pyrazol-4-yl)-2-((S)-3-methylpiperidin-1-yl)ethyl)amino)-6-phenyl-5,6,7,8-tetrahydroquinazolin-2-yl)amino)propyl)cyclohexane-1-carboxylic acid], for which, on human NPR1, the AC50 came out at 272 nM and the “Human NPR1 Amax (% of ANP)” value was 96.493 % of ANP. Further, at monkey NPR1 (setting [1]), the AC50 was 278 nM. Besides, on monkey NPR1 (monkey NPR1 CHO-K1 cells), the “Monkey NPR1 Amax (% of ANP)” value is 106.556 % of ANP.

As for `C[C@H]1CCCN(C[C@H](Nc2nc(N(C)[C@H](C3CC3)[C@H]3CC[C@H](C(=O)O)CC3)nc3c2C[C@H](c2ccccc2)CC3)c2cnn(C)c2)C1` [Compound 120, (1R,4r)-4-((R)-cyclopropyl(methyl((R)-4-(((R)-1-(1-methyl-1H-pyrazol-4-yl)-2-((S)-3-methylpiperidin-1-yl)ethyl)amino)-6-phenyl-5,6,7,8-tetrahydroquinazolin-2-yl)amino)methyl)cyclohexane-1-carboxylic acid], on human NPR1, the concentration at half-maximal activity (AC50) came to 553 nM and the “Human NPR1 Amax (% of ANP)” value is listed as 96.905 % of ANP. Besides, at monkey NPR1 (setting [1]), the AC50 is 427 nM. Further, the “Monkey NPR1 Amax (% of ANP)” value on monkey NPR1 (monkey NPR1 CHO-K1 cells) was 102.755 % of ANP.

On to `CC[C@H]([C@H]1CC[C@H](C(=O)O)CC1)N(C)c1nc2c(c(N[C@@H](CN3CCCCC3)c3cnn(CC(F)(F)F)c3)n1)C[C@H](c1ccccc1)CC2` [Compound 167, (1R,4r)-4-((R)-1-(methyl((R)-6-phenyl-4-(((R)-2-(piperidin-1-yl)-1-(1-(2,2,2-trifluoroethyl)-1H-pyrazol-4-yl)ethyl)amino)-5,6,7,8-tetrahydroquinazolin-2-yl)amino)propyl)cyclohexane-1-carboxylic acid], for which, on human NPR1, the AC50 was 2090 nM and the “Human NPR1 Amax (% of ANP)” value is given as 112.087 % of ANP. Also, the AC50 at monkey NPR1 (setting [1]) came out at 1430 nM. The “Monkey NPR1 Amax (% of ANP)” value on monkey NPR1 (monkey NPR1 CHO-K1 cells) was 98.847 % of ANP.

With `CC[C@@H](Nc1nc2c(c(N[C@@H](CN3CCC[C@H](C)C3)c3cnn(C)c3)n1)C[C@H](c1ccccc1)CC2)[C@H]1CC[C@H](C(=O)O)CC1` [Compound 32, (1R,4r)-4-((R)-1-(((R)-4-(((R)-1-(1-methyl-1H-pyrazol-4-yl)-2-((S)-3-methylpiperidin-1-yl)ethyl)amino)-6-phenyl-5,6,7,8-tetrahydroquinazolin-2-yl)amino)propyl)cyclohexane-1-carboxylic acid], on human NPR1, the AC50 worked out at 144 nM and the “Human NPR1 Amax (% of ANP)” value is reported as 99.842 % of ANP. Further, the AC50 on monkey NPR1 (setting [1]) amounted to 84 nM. For the same compound, at monkey NPR1 (monkey NPR1 CHO-K1 cells), the “Monkey NPR1 Amax (% of ANP)” value was 92.720 % of ANP.

For the origin of these results see patent US12129246B1, “Hydroquinazoline derivatives for the treatment of a disease or disorder” (Novartis AG, priority 2023, dated 2024).
